{"source": "patent US7666888B2", "about": "“Substituted azole aromatic heterocycles as inhibitors of 11β-HSD-1” (Amgen Inc., priority 2006, dated 2010)", "origin": "cited, not measured here", "key": {"bone nodule formation": {"tested_on": "bone nodule formation", "settings": "glucocorticoid effect"}, "normal subjects": {"tested_on": "normal subjects", "settings": "ingestion"}}}
{"compound": "CC1(C)[C@@H](OC(=O)CCC(=O)O)CC[C@]2(C)[C@H]3C(=O)C=C4[C@@H]5C[C@@](C)(C(=O)O)CC[C@]5(C)CC[C@@]4(C)[C@]3(C)CC[C@@H]12", "note": "[carbenoxolone]", "values": [{"measurement": "negative effect on bone nodule formation", "setting": "bone nodule formation", "value": "blocked"}, {"measurement": "reduce the intraocular pressure", "setting": "normal subjects", "value": 20, "unit": "%"}, {"measurement": "Hepatic insulin sensitivity", "setting": "healthy human volunteers", "value": "improved"}]}
